Test results from PMC6403271, “Characterization, mechanism of action and optimization of activity of a novel peptide-peptoid hybrid against bacterial pathogens involved in canine skin infections” (Scientific Reports, 2019).
≈ marks a conversion by molar mass, not a printed value. Like-named read-outs stand apart in the source and are kept apart here. Marks after values point to notes of the source that are not given here. Square brackets hold non-standard residues; d marks the D form. Peptide text beside a SMILES is read from it. N(1-naphthylmethyl)Gly = O=C(O)CNCc1cccc2ccccc12; 2Nal = N[C@@H](Cc1ccc2ccccc2c1)C(=O)O; d1Nal = N[C@H](Cc1cccc2ccccc12)C(=O)O; N(4-MeBn)Gly = Cc1ccc(CNCC(=O)O)cc1; dNle = CCCC[C@@H](N)C(=O)O; Nle = CCCC[C@H](N)C(=O)O; NBuGly = CCCCNCC(=O)O

Legend:
E. coli, 30235 = assay type: cell-based, Escherichia coli; details: 30235, 18 h
Source text: (§1) For antibacterial spectrum the following strains were used: Corynebacterium auriscanis, 31551, (54 C6, dog, ear, 2013); Enterococcus faecalis, 27404, (17 C7, dog, wound, 2011); Enterococcus faecium, 30951, (24 C1, dog, ear, 2013); Streptococcus canis, 26740-1, (14 H1, dog, ear, 2010); Staphylococcus aureus, 27266, (16 G9, dog, skin, 2010); Staphylococcus aureus, 27266, (16 G9, dog, skin, 2010); Staphylococcus pseudintermedius 22963, (3 B9, dog, 2007). Acinetobacter baumannii, 27065, (16 D1, dog, wound, 2010); E. coli, 30235, 23 A6, dog, wound, 2012; Klebsiella pneumoniae, 26233, (11 H5, dog, wound, 2010); Pasteurella canis, 31096, (24 C8, dog, skin, 2013); Proteus mirabilis, 25178, (9 A4, dog, ear, 2009); Pseudomonas aeruginosa 26314, 12 C5, dog, urine, 2010). MIC determination was performed by broth microdilution according to the Clinical and Laboratory Standard Institute (CLSI, […]-A3, 2008)[62]. In brief, each bacterial strain was diluted to concentration of 5 × 10^5 CFU/mL in Mueller Hinton broth II (MHB II) media (Oxoid) and added to a two-fold serial dilution of peptides and peptide-peptoid hybrids concentrations ranging from 1 to 64 μg/ml in 96-well plates (Nunc Internationals, Rochester, NY). The MICs were determined as a lowest concentration showing no visible growth after incubation for 18 hours at 37 °C. Experiments were performed in triplicates on two different days.

Proteus mirabilis, 25178 = assay type: cell-based; details: 25178, 18 h
Source text: as §1

[1] = test system: Streptococcus canis, 26740-1; assay type: cell-based; details: 18 h
Source text: as §1

[2] = test system: Enterococcus faecalis, 27404; assay type: cell-based; details: 27404, 18 h
Source text: as §1

Pasteurella canis, 31096 = assay type: cell-based
Source text: as §1

[3] = test system: Klebsiella pneumoniae, 26233; assay type: cell-based; details: 26233, 18 h
Source text: as §1

[4] = test system: Enterococcus faecium, 30951; assay type: cell-based; details: 30951, 18 h
Source text: as §1

[5] = test system: Corynebacterium auriscanis, 31551; assay type: cell-based; details: 18 h
Source text: as §1

[6] = test system: Acinetobacter baumannii, 27065; assay type: cell-based; details: 27065, 18 h
Source text: as §1

MRSP C22963 = assay type: cell-based, Staphylococcus pseudintermedius
Outline: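 Broth microdilution per CLSI M31-A3 on canine clinical isolates plus reference MRSP C22963, MSSA and P. aeruginosa 26314; 5 × 10^5 CFU/mL in MHB II with two-fold dilutions from 1 to 64 µg/ml. MIC = lowest concentration without visible growth after 18 hours at 37 °C; triplicates on two days.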

P. aeruginosa (26314) = assay type: cell-based, Pseudomonas aeruginosa
Outline: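 Canine clinical isolate P. aeruginosa 26314 tested by CLSI broth microdilution at 5 × 10^5 CFU/mL in Mueller Hinton broth II against 2-fold peptide dilutions of 1-64 μg/ml. MIC = lowest concentration without visible growth after 18 h at 37 °C; triplicates on two days.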

| MIC E. coli (E. coli, 30235) [µg/mL] | MIC Proteus mirabilis (Proteus mirabilis, 25178) [µg/mL] | MIC Streptococcus canis [1] [µg/mL] | MIC Enterococcus faecalis [2] [µg/mL] | MIC Klebsiella pneumoniae [3] [µg/mL] | MIC Enterococcus faecium [4] [µg/mL] | MIC Corynebacterium auriscanis [5] [µg/mL] | MIC Acinetobacter baumannii [6] [µg/mL] | MIC Staphylococcus pseudintermedius (MRSP C22963; 18 h) [µg/mL] | MIC Pasteurella canis (Pasteurella canis, 31096; 31096, 24 C8, dog, skin, 2013) [µg/mL] | SMILES | MIC Pasteurella canis (Pasteurella canis, 31096; 18 h) [µg/mL] | Minimum Inhibitory Concentration MRSP C22963 (MRSP C22963; Table 1) | Minimum Inhibitory Concentration P. aeruginosa (26314) (P. aeruginosa (26314); 26314, 18 h) [µg/mL] | Minimum Inhibitory Concentration MRSP C22963 (MRSP C22963; 18 h) [µg/mL] | Minimum Inhibitory Concentration P. aeruginosa (26314) (P. aeruginosa (26314); Table 1) [µg/mL] |
| --- | --- | --- | --- | --- | --- | --- | --- | --- | --- | --- | --- | --- | --- | --- | --- |
| 32 (≈ 30.3 µM) | >64 | 16 (≈ 15.1 µM) | >64 | >64 | 64 (≈ 60.6 µM) | 8 (≈ 7.57 µM) | 64 (≈ 60.6 µM) | 4 (≈ 3.79 µM) | > 64 | CCCC[C@H](NC(=O)[C@H](CCCCN)NC(=O)[C@H](CCCCN)NC(=O)[C@@H](N)CCCCN)C(=O)N[C@@H](Cc1ccc2ccccc2c1)C(=O)N[C@@H](Cc1ccccc1)C(=O)N[C@@H](Cc1ccc2ccccc2c1)C(N)=O [Compound 23, Lys-Lys-Lys-Nle-(2-Nal)Ala-Phe-(2-Nal)Ala] (H-KKK[Nle][2Nal]F[2Nal]-NH2) |  |  |  | 2 to 4 | 8 |
| 32 (≈ 30.3 µM) | >64 | >64 | 64 (≈ 60.6 µM) | >64 | >64 | 32 (≈ 30.3 µM) | >64 | 4 (≈ 3.79 µM) | > 64 | CCCC[C@@H](NC(=O)[C@H](CCCCN)NC(=O)[C@H](CCCCN)NC(=O)[C@@H](N)CCCCN)C(=O)N[C@H](Cc1cccc2ccccc12)C(=O)N[C@H](Cc1ccccc1)C(=O)N[C@H](Cc1cccc2ccccc12)C(N)=O [Compound 26, Lys-Lys-Lys-nle-(1-Nal)ala-phe-(1-Nal)ala] (H-KKK[dNle][d1Nal][dF][d1Nal]-NH2; N-terminus assumed) |  | 4 to 8 µg/mL |  |  | 8 |

| SMILES | MIC E. coli (E. coli, 30235) [µg/mL] | MIC Proteus mirabilis (Proteus mirabilis, 25178) [µg/mL] | MIC Streptococcus canis [1] [µg/mL] | MIC Enterococcus faecalis [2] [µg/mL] | MIC Klebsiella pneumoniae [3] [µg/mL] | MIC Enterococcus faecium [4] [µg/mL] | MIC Corynebacterium auriscanis [5] [µg/mL] | MIC Acinetobacter baumannii [6] [µg/mL] | MIC Staphylococcus pseudintermedius (MRSP C22963; 18 h) [µg/mL] | MIC Pasteurella canis (Pasteurella canis, 31096; 31096, 24 C8, dog, skin, 2013) [µg/mL] | MIC Pasteurella canis (Pasteurella canis, 31096; 18 h) [µg/mL] | Minimum Inhibitory Concentration MRSP C22963 (MRSP C22963; Table 1) | Minimum Inhibitory Concentration P. aeruginosa (26314) (P. aeruginosa (26314); 26314, 18 h) [µg/mL] | Minimum Inhibitory Concentration MRSP C22963 (MRSP C22963; 18 h) [µg/mL] | Minimum Inhibitory Concentration P. aeruginosa (26314) (P. aeruginosa (26314); Table 1) [µg/mL] |
| --- | --- | --- | --- | --- | --- | --- | --- | --- | --- | --- | --- | --- | --- | --- | --- |
| CCCCN(CC(=O)N[C@@H](CCCCN)C(=O)N(CC(=O)N(CC(=O)N(CC(N)=O)Cc1cccc2ccccc12)Cc1ccc(C)cc1)Cc1cccc2ccccc12)C(=O)[C@H](CCCCN)NC(=O)[C@@H](N)CCCCN [B1, Lys-Lys-(NBu)Gly-Lys-(N1-Nal)Gly-(N4-MeBn)Gly-(N1-Nal)Gly] (H-KK[NBuGly]K[N(1-naphthylmethyl)Gly][N(4-MeBn)Gly][N(1-naphthylmethyl)Gly]-NH2) | 64 (≈ 59.8 µM) | >64 | 4 (≈ 3.74 µM) | 64 (≈ 59.8 µM) | >64 | 16 (≈ 14.9 µM) | 4 (≈ 3.74 µM) | 64 (≈ 59.8 µM) | 2 (≈ 1.87 µM) |  | 8 (≈ 7.47 µM) | 2–4^b µg/ml | 8 to 16 |  |  |
